What was measured:
DIO NASH = conditions: cited from earlier work
[1] = system: PPARδ-regulated genes in C2C12 cells; test: PPARδ-regulated gene expression in differentiated C2C12 cells (qRT-PCR); assay type: cell-based, murine; conditions: C2C12 myotubes, 1 μM, 8 h
Procedure: HepG2 cells (DSMZ) were grown in DMEM high glucose, supplemented with 10% FCS, 1 mM SP, penicillin (100 U/mL), and streptomycin (100 μg/mL) at 37 °C and 5% CO2 and seeded in 6-well plates (2 × 10^6 per well). After 24 h, medium was changed to Minimal Essential Medium supplemented with 1% charcoal-stripped FCS, penicillin (100 U/mL), streptomycin (100 μg/mL), and 2 mM L-glutamine. After an additional 24 h, cells were incubated with test compound 41 (0.1 µM, 0.3 µM, 1 μM), OCA (1 μM), or elafibranor (1 µM) dissolved in the same medium with 0.1% DMSO or medium with 0.1% DMSO alone as untreated control for 12 h, harvested, washed with cold phosphate-buffered saline (PBS), and then directly used for RNA extraction. C2C12 cells (American Type Culture Collection, ATCC) were grown in DMEM high glucose, supplemented with 10% FCS, 1 mM SP, penicillin (100 U/mL), and streptomycin (100 μg/mL) at 37 °C and 5% CO2 and seeded in 6-well plates (1 × 10^6 per well). […] FXR- and PPAR-regulated gene expression was then studied by quantitative real-time PCR (qRT-PCR) analysis with a StepOnePlus System (Life Technologies, Carlsbad, CA, USA) using PowerSYBRGreen (Life Technologies; 12.5 μL per well). […] Data were analyzed by the comparative ΔΔCT method with glyceraldehyde 3-phosphate dehydrogenase (GAPDH) as reference gene. […]

[2] = system: nuclear receptors related to PPARs and FXR (LXRα/β, RXRα/β/γ, RARα/β/γ, VDR, CAR); test: Selectivity screening among nuclear receptors (Gal4 hybrid reporter gene assays); assay type: cell-based, human; conditions: three independent experiments
Description: For the hybrid reporter gene assays, the previously reported Gal4-fusion receptor plasmids pFA-CMV-hPPARα-LBD[29], pFA-CMV-hPPARδ-LBD[29], pFA-CMV-hPPARγ-LBD[29], pFA-CMV-hLXRα-LBD[30], pFA-CMV-hLXRβ-LBD[30], pFA-CMV-hRXRα-LBD[31], pFA-CMV-hRXRβ-LBD[31], pFA-CMV-hRXRγ-LBD[31], pFA-CMV-hRARα-LBD[31], pFA-CMV-hRARβ-LBD[31], pFA-CMV-hRARγ-LBD[31], pFA-CMV-hVDR-LBD[31], and pFA-CMV-hCAR-LBD[31] coding for the hinge region and LBD of the canonical isoform of the respective nuclear receptor were used. pFR-Luc (Stratagene) was used as reporter plasmid for Gal4 hybrid reporter gene assays. pcDNA3-hFXR[32] and pSG5-hRXR[33] served for receptor overexpression in the full-length FXR assay and pGL3basic (Promega Corporation, Fitchburg, WI, USA) with a shortened construct of the BSEP promoter cloned into the SacI/NheI cleavage site in front of the luciferase gene[34] was used as reporter. PPRE-pGL3[35] contains the human full-length PPRE (cloned into the SacI/NheI cleavage site in front of the luciferase gene) and was used as reporter plasmid for the full-length PPRE reporter gene assay. pRL-SV40 (Promega) was used in all assays for normalization of transfection efficiency and cell growth.
Before transfection, medium was changed to Opti-MEM without supplements. […] Luminescence was measured with a Spark 10 M luminometer (Tecan Deutschland GmbH). […]

SMILES | effects in DIO NASH (DIO NASH) | upregulation of PCK and GLUT3 mRNA [1] | effect on LPL expression ([1]; compared with L165,041) | selectivity among nuclear receptors related to PPARs and FXR [2]
CC[C@H]1[C@@H](O)[C@@H]2[C@H](CC[C@]3(C)[C@@H]([C@H](C)CCC(=O)O)CC[C@@H]23)[C@@]2(C)CC[C@@H](O)C[C@@H]12 [OCA, 6α-ethylchenodeoxycholic acid, reference compound] | pronounced anti-steatotic activity and slight anti-fibrotic effects | – | – | –
CC(C)(C)c1ccc(C(=O)Nc2cccc(CCC(=O)O)c2)c(NC(=O)c2ccc(-c3ccco3)cc2)c1 [compound 41, 3-(3-[4-{tert-Butyl}-2-{4-(2-furyl)}benzamido]phenyl)propanoic acid] | – | comparable efficacy as the selective PPARδ agonist L165,041 | less pronounced | no off-target liability

From PMC9814779, “A triple farnesoid X receptor and peroxisome proliferator-activated receptor α/δ activator reverses hepatic fibrosis in diet-induced NASH in mice” (Communications Chemistry, 2020)
